The text below walks through data of patent US7960606B2, “Mouse model of chronic heart failure and coronary atherosclerosis regression” (The J. David Gladstone Institutes, priority 2006, dated 2011).

In assay [1] the test system is Apoe^h/hSRB1^−/−Mx1-Cre mice. Nature of the assay: Survival of diet-induced heart attacks in Apoe^h/hSRB1^−/−Mx1-Cre mice after pI-pC injection and switch to low fat diet. Type of assay: in vivo. From the text: The animal model was created by breeding Apoe^h/hSRB1^−/− mice to mice that carry the inducible Mx1-Cre transgene, resulting in Apoe^h/hSRB1^−/−Mx1-Cre mice that are sensitive to diet-induced coronary atherosclerosis and develop fatal myocardial infarctions within 35 days of dietary challenge. However, this new strain of mice can survive its heart attacks if switched to a normal low fat diet and given a single intrapentoneal injection of polyinosinic polycytidylic ribonucleic acid (pI-pC). […] Surviving Apoe^h/hSRB1^−/−MX1-Cre mice can then live for many months. Upon histological analysis of their heart, there is evidence of myocardial infarction and ventricular enlargement. Consequently, the surviving Apoe^h/hSRB1^−/−Mx1-Cre mice are a unique murine model of chronic heart failure that simulates chronic heart failure in humans who survive heart attacks caused by coronary atherosclerosis.
10 Apoe^h/hSRB1^−/−Mx1-Cre mice were fed a high cholesterol diet for 30 days. On day 31, they were injected with pI-pC, and then switched to a low fat diet. Of the 10 mice, 6 survived for two months. At that time point, their hearts were harvested and heart function was assessed in 4 of the 6 mice by Langendorf hemodynamic measurements.

Assay [2] relates to SR-BI knockout females. To be noted: administered during the breeding protocol; Miettinen et al. 2001; cited from earlier work.

As to “polyinosinic polycytidylic ribonucleic acid [pI-pC]”, the “mice surviving for two months (of 10)” value in assay [1] (high cholesterol diet for 30 days, pI-pC injected on day 31, then low fat diet, 10 mice) turned out to be 6. Moreover, the blood cholesterol levels result in assay [1] (single intraperitoneal injection, activates Mx1-Cre gene, restores normal Arg-61 apoE levels in blood) is “rapidly and permanently lowers blood cholesterol levels in a few days”.

For the molecule `CC(C)(Sc1cc(C(C)(C)C)c(O)c(C(C)(C)C)c1)Sc1cc(C(C)(C)C)c(O)c(C(C)(C)C)c1` [probucol], in assay [2], the “fertility in the SR-BI knockout females” value was “restore fertility”.
